In publication PMC6863074 (Journal of medicinal chemistry, 2015):
Entries after “also recorded” stand apart in the source; their conditions may differ.

Each compound was assayed on S. aureus ATCC 29213 (assay: MIC determination, S. aureus ATCC 29213). Conditions: S. aureus ATCC 29213 MIC screening; active = MIC ≤ 8 μg/mL.

Row | Compound | antibacterial activity (in words)
1 | FC(F)(F)c1ccc(Oc2ccc(-c3noc(-c4n[nH]c5ccccc45)n3)cc2)cc1 [123b] | No activity
2 | COc1cc(-c2nc(-c3ccc(Oc4ccccc4)cc3)no2)ccc1N [94a] | abolish activity
3 | O=C(Nc1c[nH]nc1-c1nc(-c2ccc(Oc3ccc(C(F)(F)F)cc3)cc2)no1)c1ccccc1 [108b] | did not extend
4 | Nc1ccc(-c2nc(-c3ccc(Oc4ccc(C(F)(F)F)cc4)cc3)no2)cc1 [58b] | low MIC values
5 | Oc1cc(-c2nc(-c3ccc(Oc4ccccc4)cc3)no2)ccc1I [96a] | failed to show activity
6 | Nc1cncc(-c2nc(-c3ccc(Oc4ccc(F)cc4)cc3)no2)c1 [122c] | No activity
7 | CC(C)CNc1c[nH]nc1-c1nc(-c2ccc(Oc3ccc(C(F)(F)F)cc3)cc2)no1 [105b] | did not extend
8 | Fc1ccc(-c2nc(-c3ccc(Oc4ccccc4)cc3)no2)cc1 [80a] | loss of activity
9 | Nc1c[nH]nc1-c1nc(-c2ccc(Oc3ccc(C(F)(F)F)cc3)cc2)no1 [64b, 3-(3-(4-(4-(Trifluoromethyl)phenoxy)phenyl)-1,2,4-oxadiazol-5-yl)-1H-pyrazol-4-amine] | tolerated
10 | COc1cc(-c2nc(-c3ccc(Oc4ccc(C(F)(F)F)cc4)cc3)no2)ccc1O [93b] | failed to show activity; also recorded: abolish activity
11 | CC(C)Nc1c[nH]nc1-c1nc(-c2ccc(Oc3ccccc3)cc2)no1 [65a] | active
12 | N#Cc1c[nH]nc1-c1nc(-c2ccc(Oc3ccc(C(F)(F)F)cc3)cc2)no1 [67b] | maintained good activity
13 | O=[N+]([O-])c1c[nH]c(-c2nc(-c3ccc(Oc4ccc(C(F)(F)F)cc4)cc3)no2)c1 [78b] | retained good activity
14 | O=[N+]([O-])c1c[nH]c(-c2nc(-c3ccc(Oc4ccc(F)cc4)cc3)no2)c1 [78c] | generally abolish antibacterial activity
15 | Cc1nc(-c2ccc(Oc3ccccc3)cc2)no1 [113a] | abolishes activity
16 | FC(F)(F)c1ccc(Oc2ccc(-c3noc(-c4c[nH]c5ncccc45)n3)cc2)cc1 [125b] | No activity
17 | Nc1cc(-c2nc(-c3ccc(Oc4ccc(F)cc4)cc3)no2)ccc1O [92c] | failed to show activity
18 | CCCCNc1c[nH]nc1-c1nc(-c2ccc(Oc3ccc(C(F)(F)F)cc3)cc2)no1 [104b] | did not extend
19 | O=c1[nH]c(-c2ccc(Oc3ccccc3)cc2)no1 [112a] | abolishes activity
20 | Oc1ccccc1-c1nc(-c2ccc(Oc3ccccc3)cc2)no1 [97a] | failed to show activity
21 | Nc1ccc(-c2nc(-c3ccc(Oc4ccc(F)cc4)cc3)no2)cc1 [58c] | no antibiotic activity
22 | FC(F)(F)c1ccc(Oc2ccc(-c3noc(-c4cn[nH]n4)n3)cc2)cc1 [117b] | generally abolish antibacterial activity
23 | c1ccc(Oc2ccc(-c3noc(-c4ccncc4)n3)cc2)cc1 [114a] | generally abolish antibacterial activity

Row | Compound | antibacterial activity (in words)
24 | O=C(O)c1ccc(-c2nc(-c3ccc(Oc4ccc(F)cc4)cc3)no2)cc1 [89c] | failed to show activity; also recorded: attenuate or abrogate activity
25 | Nc1cc(-c2nc(-c3ccc(Oc4ccc(C(F)(F)F)cc4)cc3)no2)cnc1O [121b] | No activity
26 | FC(F)(F)c1ccc(Oc2ccc(-c3noc(-c4ccc(Br)cc4)n3)cc2)cc1 [81b] | loss of activity
27 | O=[N+]([O-])c1cc(-c2nc(-c3ccc(Oc4ccc(C(F)(F)F)cc4)cc3)no2)cnc1O [77b] | retained good activity
28 | FC(F)(F)c1ccc(Oc2ccc(-c3noc(-c4n[nH]cc4NC4CCCCC4)n3)cc2)cc1 [106b] | did not extend
29 | Oc1ccc(-c2nc(-c3ccc(Oc4ccc(C(F)(F)F)cc4)cc3)no2)cn1 [120b] | No activity
30 | OCC#Cc1c[nH]nc1-c1nc(-c2ccc(Oc3ccc(C(F)(F)F)cc3)cc2)no1 [68b] | maintained good activity
31 | NC(=O)c1ccc(-c2nc(-c3ccc(Oc4ccc(F)cc4)cc3)no2)cc1 [88c] | failed to show activity; also recorded: attenuate or abrogate activity
32 | O=[N+]([O-])c1cc(-c2nc(-c3ccc(Oc4ccc(F)cc4)cc3)no2)ccc1O [91c] | failed to show activity; also recorded: abolish activity
33 | Nc1ccc(-c2nc(-c3ccc(Oc4ccc(C(F)(F)F)cc4)cc3)no2)cc1F [72b] | without significant loss of activity
34 | O=C(Nc1c[nH]nc1-c1nc(-c2ccc(Oc3ccc(C(F)(F)F)cc3)cc2)no1)c1ccccn1 [109b] | did not extend
35 | Oc1cccc(-c2nc(-c3ccc(Oc4ccccc4)cc3)no2)c1 [95a] | failed to show activity
36 | FC(F)(F)c1ccc(Oc2ccc(-c3noc(-c4c[nH]cn4)n3)cc2)cc1 [76b, 5-(1H-Imidazol-4-yl)-3-(4-(4-(trifluoromethyl)phenoxy)phenyl)-1,2,4-oxadiazole] | retained good activity
37 | Oc1c(F)cc(-c2nc(-c3ccc(Oc4ccc(C(F)(F)F)cc4)cc3)no2)cc1F [71b] | without significant loss of activity
38 | FC(F)(F)c1ccc(Oc2ccc(-c3noc(-c4cc[nH]n4)n3)cc2)cc1 [102b] | No activity
39 | Nc1c[nH]c(-c2nc(-c3ccc(Oc4ccc(F)cc4)cc3)no2)c1 [126c] | generally abolish antibacterial activity
40 | NS(=O)(=O)c1ccc(-c2nc(-c3ccc(Oc4ccc(F)cc4)cc3)no2)cc1 [87c] | attenuate or abrogate activity
41 | Nc1cncc(-c2nc(-c3ccc(Oc4ccc(C(F)(F)F)cc4)cc3)no2)c1 [122b] | No activity
42 | COC(=O)c1ccc(-c2nc(-c3ccc(Oc4ccc(F)cc4)cc3)no2)cc1 [90c] | failed to show activity
43 | FC(F)(F)c1ccc(Oc2ccc(-c3noc(-c4n[nH]cc4NC4CCCC4)n3)cc2)cc1 [107b] | did not extend
44 | [O-][n+]1ccc(-c2nc(-c3ccc(Oc4ccccc4)cc3)no2)cc1 [115a] | generally abolish antibacterial activity
45 | FC(F)(F)c1ccc(Oc2ccc(-c3noc(-c4nc[nH]n4)n3)cc2)cc1 [116b] | generally abolish antibacterial activity

Same assay, conditions: Staphylococcus aureus, ATCC29213|MSSA

Row | Compound | MIC [µg/mL]
46 | Brc1c[nH]nc1-c1nc(-c2ccc(Oc3ccccc3)cc2)no1 [61a] | ≤ 1
